Results taken from patent publication US12280090B2, “Antimicrobial peptides” (priority 2018, dated 2025).
≈ marks a conversion by molar mass, not a printed value. Read-outs that look alike come from different tables or passages of the source. Ends that are not written are not given here. Peptide text beside a SMILES is read from it.

Assays:
[1] = tested on: Salmonella Heidelberg (MDR); assay type: cell-based
From the text: (§1) The ATCC (American Type Culture Collection) strains received from Cedarlane. Multi drug resistant (MDR) strains, as clinical isolates, were received from the laboratory of Dr. Linda Hoang.
(§2) Putative antimicrobial peptides were synthesized by GeneScript. A-list antimicrobial peptides re-synthesized by GeneScript. P2_CCH, P5_CCH, and P5_CCH_A19K were each synthesized under two conditions: standard synthesis using TFA, and the other with TFA-removal using acetate as a counter-ion. A MIC method, adapted for use with cationic antimicrobial peptides, was used to evaluate MIC antimicrobial activity (Hancock 1999).
(§3) The following data are presented to show the activity (MIC/MBC in μg/mL) of certain antimicrobial peptides described herein relative to a modified/synthetic version having a specified substitution. While data presented in tables above may be presented again, or may be represented in data provided in the tables below, such duplication is believed to assist the reader in readily noting comparisons. Different Run Numbers noted in the following tables denotes experiments conducted on different days, with each run reflecting multiple n values.

[2] = tested on: Methicillin resistant Staphylococcus aureus; assay type: cell-based
Procedure: (§4) Independent experiments were conducted with different strains of Staphylococcus aureus—ATCC 29213 “wild type”; and Staphylococcus aureus—Methicillin resistant Staphylococcus aureus.
as §1, §2, §3

[3] = tested on: Staphylococcus aureus—ATCC 29213 “wild type”; assay type: cell-based
Procedure: as §4, §1, §2, §3

in vitro = settings: red blood cells
Procedure: Peptides were tested for activity using as minimum inhibitory concentration (MIC), and minimum bactericidal concentration (MBC) determinations. For certain peptides, a hemolysis test was also conducted to determine HC50 (μg/mL) as an indicator of hemolytic activity based on the concentration of an antimicrobial compound that kills 50% red blood cells.
In Table 27, the designations P2, P2M, P3, P3M, P4, P4M, P5, P5M, P6, and P6M refer to peptides P2_CCH, P2_CCH_T15K_P7R, P3_CCH, P3_CCH_D8K_Q23C, P4_CCH, P4_CCH_P31K, P5_CCH, P5_CCH_A19K, P6_CCH, and P6_CCH_S12K, respectively, as defined above.

[4] = tested on: Escherichia coli—Carbapenemase-producing organism; New-Dehli Metallobetalactamase; assay type: cell-based
In short: (§5)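 MIC/MBC of cationic antimicrobial peptides by a broth method adapted for cationic peptides, against E. coli ATCC 25922 and clinical MDR isolates (ESBL, KPC, NDM). Some peptides made as TFA or acetate salts. Each run on a different day with multiple replicates.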

[5] = tested on: Escherichia coli—ATCC 25922 “wild type”; assay type: cell-based
In short: as §5

[6] = tested on: Escherichia coli—Carbapenemase-producing organism; Klebsiella pneumoniae carbapenemase; assay type: cell-based
In short: as §5

[7] = tested on: Escherichia coli—Extended spectrum beta-lactamase; assay type: cell-based
In short: as §5

Salmonella Enteritidis = assay type: cell-based
From the text: as §2, §3

[8] = tested on: Streptococcus pyogenes: unknown strain, hospital isolate; assay type: cell-based; settings: unknown strain, hospital isolate
In short: (§6)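 MIC and MBC were run by broth microdilution adapted from Hancock cationic-AMP and CLSI methods, in Mueller Hinton broth (+5% lysed horse blood for S. pyogenes) at about 5×10^5 CFU/mL. Peptides came from two-fold 10× stocks (2560–5 μg/mL) and were incubated 16-24 h at 37 °C. For MBC, the MIC well and two more-concentrated wells were plated on MHA for 24 h at 37 °C.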

[9] = tested on: Mycobacterium smegmatis (MC^2155); assay type: cell-based; settings: Mycobacterium (MC^2155)
In short: as §6

[10] = tested on: Escherichia coli: ATCC 9723H; assay type: cell-based; settings: ATCC 9723
In short: as §6

[11] = tested on: Staphylococcus aureus: ATCC 6538P; assay type: cell-based; settings: ATCC 6538
In short: as §6

Compound | Minimum Inhibitory Concentration (MIC) [1] [mg/L] | Minimum Inhibitory Concentration (MIC) ([2]; Methicillin resistant) [µg/mL] | Minimum Inhibitory Concentration (MIC) ([3]; ATCC 29213) [µg/mL] | Minimum Inhibitory Concentration (MIC) [4] [mg/L] | Minimum Inhibitory Concentration (MIC) [5] [mg/L] | Minimum Inhibitory Concentration (MIC) [6] [mg/L] | Minimum Inhibitory Concentration (MIC) [7] [mg/L] | Minimum Inhibitory Concentration (MIC) (Salmonella Enteritidis) [mg/L] | further results
FFPRVLRLANKFLPKIYCALPKSVGN [P2_CCH_T15K_P7R] | 16 to 64 | 32 to 64 | 64 to 128 | 4 to 8 | 4 to 8 | 8 | 2 to 8 | 32 to 64 | HC50 (in vitro; HC50 (hemolysis test)): 64 µg/mL; MBC [6]: 8 mg/L; MIC [6]: 8 mg/L
CC[C@H](C)[C@H](NC(=O)[C@@H](NC(=O)[C@@H]1CCCN1C(=O)[C@H](Cc1ccccc1)NC(=O)[C@@H](N)Cc1ccccc1)[C@@H](C)CC)C(=O)N[C@@H](C)C(=O)N[C@@H](CCCNC(=N)N)C(=O)N[C@@H](CC(C)C)C(=O)N[C@@H](C)C(=O)N[C@@H](C)C(=O)N[C@@H](CCCCN)C(=O)N[C@H](C(=O)N[C@H](C(=O)N1CCC[C@H]1C(=O)N[C@@H](CO)C(=O)N[C@@H](CC(C)C)C(=O)N[C@H](C(=O)N[C@@H](CS)C(=O)N[C@@H](CCCCN)C(=O)N[C@H](C(=O)N[C@H](C(=O)N[C@@H](CCCCN)C(=O)N[C@@H](CCCCN)C(=O)N[C@@H](CS)C(=O)O)[C@@H](C)O)C(C)C)C(C)C)[C@@H](C)CC)C(C)C [Peptide P5_CCH_A19K] (H-FFPIIARLAAKVIPSLVCKVTKKC-OH; N-terminus and C-terminus assumed) | 16 to 64 | 2 to 8 | 2 to 8 | 4 to 16 | 4 to 16 | 4 to 16 | 4 to 16 | 16 to 64 | HC50 (in vitro; RPMI): 64 to 128 µg/mL
CC[C@H](C)[C@H](NC(=O)[C@H](CO)NC(=O)[C@H](CCCCN)NC(=O)CNC(=O)[C@@H](NC(=O)[C@@H](NC(=O)[C@H](CCCCN)NC(=O)[C@@H](NC(=O)[C@@H](NC(=O)[C@H](CCC(=O)O)NC(=O)[C@H](Cc1c[nH]c2ccccc12)NC(=O)[C@H](CC(C)C)NC(=O)CN)[C@@H](C)O)[C@@H](C)CC)[C@@H](C)O)[C@@H](C)O)C(=O)N[C@@H](C)C(=O)N[C@@H](CC(C)C)C(=O)N[C@@H](CC(N)=O)C(=O)N[C@@H](CC(C)C)C(=O)N[C@@H](CC(C)C)C(=O)N[C@@H](CC(=O)O)C(=O)N[C@@H](CCCCN)C(=O)N[C@H](C(=O)N[C@@H](CCCCN)C(=O)N[C@@H](CS)C(=O)N[C@@H](CCCCN)C(=O)N[C@H](C(=O)N[C@@H](C)C(=O)NCC(=O)NCC(=O)N[C@@H](CS)C(=O)N1CCC[C@H]1C(=O)N1CCC[C@H]1C(=O)O)[C@@H](C)CC)[C@@H](C)CC [Peptide P6_CCH] (H-GLWETIKTTGKSIALNLLDKIKCKIAGGCPP-OH; N-terminus and C-terminus assumed) | 64 | – | – | 16 to 32 | 8 to 16 | 8 | 8 to 16 | 64 to 128 | MBC [8]: 128 mg/L (≈ 39.1 µM); MIC [8]: 128 mg/L (≈ 39.1 µM); MIC [9]: 2 mg/L (≈ 0.612 µM); MBC [10]: 16 to 64 mg/L; MIC [10]: 16 to 64 mg/L; MBC [11]: 256 mg/L (≈ 78.3 µM); MIC [11]: 128 to 256 mg/L; Minimum Inhibitory Concentration (MIC) ([2]; MRSA, Gram positive): 128+ ug/mL; MBC ([2]; Methicillin resistant): 256 mg/L (≈ 78.3 µM); Minimum Inhibitory Concentration (MIC) ([3]; S. aureus ATCC 29213, Gram positive): 128+ ug/mL
